In patent publication US11912703B2, “6-azaindole compounds” (BRISTOL-MYERS SQUIBB COMPANY, priority 2017, dated 2024):
Where two headings read alike, the source gives them in different places.

Experiments:
human TLR7 = human TLR7 (Homo sapiens (Human), UniProt Q9NYK1); assay: TLR7 inhibition reporter assay (HEK-Blue SEAP); type: cell-based; conditions: HEK-Blue cells overexpressing human TLR7, gardiquimod 7.5 μM stimulation
human TLR8 = human TLR8 (Homo sapiens (Human), UniProt Q9NR97); assay: TLR8 inhibition reporter assay (HEK-Blue SEAP);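 further: SEAP driven by IFN-β minimal promoter with five NF-κB and AP-1 sites, compounds tested 0.05 nM to 50 µM, 22 h incubation, inhibition relative to agonist plus DMSO wells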
Chain of human TLR8 (Q9NR97 27-1041): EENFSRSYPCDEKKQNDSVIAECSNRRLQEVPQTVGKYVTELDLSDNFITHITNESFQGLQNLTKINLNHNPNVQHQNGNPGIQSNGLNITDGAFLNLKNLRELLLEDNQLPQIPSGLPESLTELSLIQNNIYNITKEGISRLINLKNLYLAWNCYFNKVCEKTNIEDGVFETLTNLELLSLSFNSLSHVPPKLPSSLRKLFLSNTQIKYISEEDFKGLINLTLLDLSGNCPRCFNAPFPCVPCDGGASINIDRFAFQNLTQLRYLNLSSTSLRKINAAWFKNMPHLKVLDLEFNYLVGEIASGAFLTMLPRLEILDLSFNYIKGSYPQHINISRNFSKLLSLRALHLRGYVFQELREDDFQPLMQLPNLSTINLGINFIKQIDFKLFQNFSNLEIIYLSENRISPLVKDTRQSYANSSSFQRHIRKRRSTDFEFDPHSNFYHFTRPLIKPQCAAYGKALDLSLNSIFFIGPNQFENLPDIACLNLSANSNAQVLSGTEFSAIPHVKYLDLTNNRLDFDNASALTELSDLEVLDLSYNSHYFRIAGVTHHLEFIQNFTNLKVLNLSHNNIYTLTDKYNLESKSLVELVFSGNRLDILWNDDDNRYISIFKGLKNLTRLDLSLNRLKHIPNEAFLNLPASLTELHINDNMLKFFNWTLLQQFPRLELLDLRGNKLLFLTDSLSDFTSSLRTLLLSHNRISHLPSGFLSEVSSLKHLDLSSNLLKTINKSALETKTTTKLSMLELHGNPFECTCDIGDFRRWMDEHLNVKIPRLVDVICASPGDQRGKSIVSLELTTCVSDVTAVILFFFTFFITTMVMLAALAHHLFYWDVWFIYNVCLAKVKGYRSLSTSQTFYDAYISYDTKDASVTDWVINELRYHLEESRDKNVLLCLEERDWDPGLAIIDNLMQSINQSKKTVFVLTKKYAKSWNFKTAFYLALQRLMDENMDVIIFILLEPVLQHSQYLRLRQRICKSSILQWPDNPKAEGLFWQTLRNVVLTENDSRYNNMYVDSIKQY

human TLR9 = human TLR9 (Homo sapiens (Human), UniProt Q9NR96); assay: TLR9 inhibition reporter assay (HEK-Blue SEAP);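 further: SEAP driven by IFN-β minimal promoter carrying five NF-κB and AP-1 sites, 22 h at 37 °C, compounds 0.05 nM–50 µM, inhibition scaled between agonist-plus-DMSO and reference-inhibitor wells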
Chain of human TLR9 (Q9NR96 26-1032): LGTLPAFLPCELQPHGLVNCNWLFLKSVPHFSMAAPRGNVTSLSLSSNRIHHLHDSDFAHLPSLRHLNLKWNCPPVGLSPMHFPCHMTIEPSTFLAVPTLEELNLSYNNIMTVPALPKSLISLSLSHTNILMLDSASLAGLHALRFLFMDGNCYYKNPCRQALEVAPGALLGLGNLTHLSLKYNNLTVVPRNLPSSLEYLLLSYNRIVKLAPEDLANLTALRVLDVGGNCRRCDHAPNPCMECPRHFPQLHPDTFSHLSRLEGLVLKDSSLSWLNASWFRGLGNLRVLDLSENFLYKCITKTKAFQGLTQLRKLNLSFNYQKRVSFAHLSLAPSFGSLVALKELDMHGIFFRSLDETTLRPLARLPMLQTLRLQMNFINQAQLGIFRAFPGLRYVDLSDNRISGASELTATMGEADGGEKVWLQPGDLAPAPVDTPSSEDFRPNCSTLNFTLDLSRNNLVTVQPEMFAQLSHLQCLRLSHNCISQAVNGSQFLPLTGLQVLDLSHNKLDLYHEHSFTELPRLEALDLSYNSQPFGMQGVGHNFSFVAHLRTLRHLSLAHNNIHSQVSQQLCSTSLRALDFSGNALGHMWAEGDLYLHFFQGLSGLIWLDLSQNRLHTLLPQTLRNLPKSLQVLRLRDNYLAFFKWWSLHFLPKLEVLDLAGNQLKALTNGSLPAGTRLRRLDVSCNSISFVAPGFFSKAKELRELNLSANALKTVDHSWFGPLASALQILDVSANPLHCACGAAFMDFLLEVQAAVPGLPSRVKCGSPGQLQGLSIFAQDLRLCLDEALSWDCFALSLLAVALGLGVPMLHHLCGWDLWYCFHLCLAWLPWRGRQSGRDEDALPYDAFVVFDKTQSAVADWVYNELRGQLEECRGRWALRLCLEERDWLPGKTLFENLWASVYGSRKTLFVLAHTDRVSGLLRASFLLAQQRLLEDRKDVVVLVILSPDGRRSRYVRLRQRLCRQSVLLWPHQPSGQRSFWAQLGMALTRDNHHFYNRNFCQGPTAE
Method: HEK-Blue™-cells (Invivogen) overexpressing human TLR7, TLR8 or TLR9 receptors were used for screening inhibitors of these receptors using an inducible SEAP (secreted embryonic alkaline phosphatase) reporter gene under the control of the IFN-β minimal promoter fused to five NF-κB and AP-1-binding sites. Briefly, cells are seeded into Greiner 384 well plates (15000 cells per well for TLR7, 20,000 for TLR8 and 25,000 for TLR9) and then treated with test compounds in DMSO to yield a final dose response concentration range of 0.05 nM-50 μM. After a 30 minute compound pre-treatment at room temperature, the cells are then stimulated with a TLR7 ligand (gardiquimod at a final concentration of 7.5 μM), TLR8 ligand (R848 at a final concentration of 15.9 μM) or TLR9 ligand (ODN2006 at a final concentration of 5 nM) to activate NF-κB and AP-1 which induce the production of SEAP. After a 22 hour incubation at 37° C., 500 CO2, SEAP levels are determined with the addition of HEK-Blue™ Detection reagent (Invivogen), a cell culture medium that allows for detection of SEAP, according to manufacturer's specifications.

[1] = read-out: TLR8 IC50; HEK-Blue cells overexpressing human TLR8, R848 15.9 μM stimulation, SEAP reporter
[2] = read-out: TLR9 IC50; HEK-Blue cells overexpressing human TLR9, ODN2006 5 nM stimulation, SEAP reporter
[3] = read-out: TLR8 IC50; HEK-Blue cells overexpressing human TLR8; R848 15.9 μM stimulation; SEAP reporter
[4] = read-out: TLR9 IC50; HEK-Blue cells overexpressing human TLR9; ODN2006 5 nM stimulation; SEAP reporter

Chain of human TLR7 (Q9NYK1 27-1049): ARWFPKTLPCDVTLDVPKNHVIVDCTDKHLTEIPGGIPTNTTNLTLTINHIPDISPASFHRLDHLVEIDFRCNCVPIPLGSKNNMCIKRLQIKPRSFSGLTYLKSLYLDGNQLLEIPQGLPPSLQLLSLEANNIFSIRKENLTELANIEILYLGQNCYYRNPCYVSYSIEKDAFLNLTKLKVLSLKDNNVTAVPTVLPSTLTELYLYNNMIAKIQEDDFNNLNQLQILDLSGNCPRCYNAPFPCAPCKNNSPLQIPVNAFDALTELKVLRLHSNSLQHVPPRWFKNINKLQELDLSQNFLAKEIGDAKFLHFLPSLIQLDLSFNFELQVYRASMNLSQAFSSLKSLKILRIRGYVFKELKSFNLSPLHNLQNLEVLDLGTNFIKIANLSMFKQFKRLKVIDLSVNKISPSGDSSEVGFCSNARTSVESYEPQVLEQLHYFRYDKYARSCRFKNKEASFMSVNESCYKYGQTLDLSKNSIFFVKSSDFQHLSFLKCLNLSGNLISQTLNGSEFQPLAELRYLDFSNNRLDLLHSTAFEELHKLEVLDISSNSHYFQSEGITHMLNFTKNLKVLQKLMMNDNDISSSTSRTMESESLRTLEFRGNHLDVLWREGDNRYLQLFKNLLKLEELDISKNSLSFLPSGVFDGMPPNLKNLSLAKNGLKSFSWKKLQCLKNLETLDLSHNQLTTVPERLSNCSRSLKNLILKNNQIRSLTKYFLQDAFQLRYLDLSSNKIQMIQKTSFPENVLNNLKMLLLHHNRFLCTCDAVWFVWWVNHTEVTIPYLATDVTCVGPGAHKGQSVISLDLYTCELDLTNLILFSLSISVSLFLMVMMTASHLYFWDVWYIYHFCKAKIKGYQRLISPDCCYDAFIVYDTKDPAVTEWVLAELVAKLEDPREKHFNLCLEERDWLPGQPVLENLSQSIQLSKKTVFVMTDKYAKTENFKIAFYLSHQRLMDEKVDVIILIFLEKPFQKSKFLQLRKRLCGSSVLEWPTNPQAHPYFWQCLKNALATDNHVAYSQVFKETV

Compound	IC50 (human TLR7)	IC50 (human TLR8; [1])	IC50 (human TLR9; [2])	IC50 (human TLR8; [3])	IC50 (human TLR9; [4])
Cc1cc(-c2[nH]c3cnc(C4CCN(C(=O)CN(C)C)CC4)cc3c2C(C)C)cn2ncnc12 [Example 5, 2-(dimethylamino)-1-(4-(3-isopropyl-2-(8-methyl-[1,2,4]triazolo[1,5-a]pyridine-6-yl)-1H-pyrrolo[2,3-c]pyridin-5-yl)piperidin-1-yl)ethan-1-one]	9.5 nM	100 nM	250 nM	–	–
COc1cc(-c2[nH]c3cnc(C4CCC(NC5COC5)C4)cc3c2C(C)C)cn2ncnc12 (centres unmarked) [Example 274]	42 nM	35 nM	648 nM	–	–
Cc1cc(-c2[nH]c3cnc(C4CCN(C(=O)CN(C)C)CC4)c(F)c3c2C(C)C)cn2ncnc12 [Example 65]	2.2 nM	5.6 nM	3320 nM	–	–
COc1cc(-c2[nH]c3cnc(N4CCC(NCC(C)(C)C)CC4)c(C)c3c2C(C)C)cn2ncnc12 [Example 169]	0.36 nM	0.33 nM	1730 nM	–	–
Cc1c(-c2[nH]c3cnc(N4CCN(CCS(C)(=O)=O)CC4)c(F)c3c2C(C)C)cn2ncnc2c1C [Example 398]	7.2 nM	1.9 nM	46800 nM	–	–
Cc1c(-c2[nH]c3cnc(N4CCC(N5CCC5)CC4)c(F)c3c2C(C)C)cn2ncnc2c1C [Example 51]	0.74 nM	0.58 nM	2770 nM	–	–
Cc1c(N2CCC(NC3COC3)CC2)ncc2[nH]c(-c3cc(C)c4ncnn4c3)c(C(C)C)c12 [Example 140]	0.53 nM	1.4 nM	3050 nM	–	–
CCN(C)C1CCC(c2ncc3[nH]c(-c4cc(OC)c5ncnn5c4)c(C(C)C)c3c2C)CC1 (centres unmarked) [Example 116]	10 nM	42 nM	766 nM	–	–
Cc1cc(-c2[nH]c3cnc(N4CCC(NC5COC5)CC4)c(F)c3c2C(C)C)cn2ncnc12 [Example 255]	0.5 nM	0.49 nM	14500 nM	–	–
COCCN1CCC(c2ncc3[nH]c(-c4cc(C)nc(C)c4)c(C(C)C)c3c2F)CC1 [Example 216]	14 nM	–	–	12 nM	4650 nM
Cc1c(-c2[nH]c3cnc(C4CCC(N5CC6(COC6)C5)CC4)c(C)c3c2C(C)C)cn2ncnc2c1C (centres unmarked) [Example 57]	4.9 nM	19 nM	682 nM	–	–
Cc1c(-c2[nH]c3cnc(N4CC5(CN(CCS(C)(=O)=O)C5)C4)c(F)c3c2C(C)C)cn2ncnc2c1C [Example 396]	99 nM	19 nM	> 50000 nM	–	–
COc1cc(-c2[nH]c3cnc(C4CCC(NC(C)C)CC4)c(F)c3c2C(C)C)cn2ncnc12 (centres unmarked) [Example 159]	3.4 nM	4.5 nM	455 nM	–	–
Cc1c(-c2[nH]c3cnc(C4CCC(NCC(C)(C)C)CC4)c(F)c3c2C(C)C)cn2ncnc2c1C (centres unmarked) [Example 200]	3 nM	1.1 nM	8780 nM	–	–
Cc1c(-c2[nH]c3cnc(N4CCC(NC5CCOCC5)CC4)c(F)c3c2C(C)C)cn2ncnc2c1C [Example 264]	0.69 nM	0.16 nM	1640 nM	–	–
Cc1c(-c2[nH]c3cnc(N4CCN(C(=O)CN(C)C)C[C@H]4C)c(F)c3c2C(C)C)cn2ncnc2c1C [Example 470]	4.9 nM	–	–	0.49 nM	15500 nM
COc1cc(-c2[nH]c3cnc(N4CCC(N(C)C5COC5)CC4)cc3c2C(C)C)cn2ncnc12 [Example 314]	4.3 nM	1.5 nM	3700 nM	–	–
COc1cc(-c2[nH]c3cnc(N4CCC(NCC5(C)COC5)CC4)c(F)c3c2C(C)C)cn2ncnc12 [Example 67]	9.1 nM	11 nM	5800 nM	–	–
Cc1c(-c2[nH]c3cnc(N4CCC(NC(C)C)CC4)c(F)c3c2C(C)C)cn2ncnc2c1C [Example 166]	0.41 nM	0.18 nM	3340 nM	–	–

Compound	IC50 (human TLR7)	IC50 (human TLR8; [1])	IC50 (human TLR9; [2])	IC50 (human TLR8; [3])	IC50 (human TLR9; [4])
COc1cc(-c2[nH]c3cnc(C4CCN(C5COC5)CC4)c(C)c3c2C(C)C)cn2ncnc12 [Example 16]	4.7 nM	26 nM	1290 nM	–	–
CCN(C)C1CCN(c2ncc3[nH]c(-c4cc(C)c5ncnn5c4)c(C(C)C)c3c2C)CC1 [Example 235]	0.24 nM	1 nM	2210 nM	1 nM	2210 nM
Cc1cc(-c2[nH]c3cnc(C4CCN(CC5(C)COC5)CC4)c(F)c3c2C(C)C)cc(C)n1 [Example 215]	4.2 nM	–	–	3.7 nM	2000 nM
COc1cc(-c2[nH]c3cnc(C4CCNCC4)c(C)c3c2C(C)C)cn2ncnc12 [Example 1, 6-(3-isopropyl-4-methyl-5-(piperidin-4-yl)-1H-pyrrolo[2,3-c]pyridin-2-yl)-8-methoxy-[1,2,4] triazolo[1,5-a]pyridine]	4.7 nM	89 nM	550 nM	–	–
Cc1c(-c2[nH]c3cnc(C4CCN(C5COC5)CC4)cc3c2C(C)C)cn2ncnc2c1C [Example 30]	4.7 nM	7.7 nM	855 nM	–	–
COc1cc(-c2[nH]c3cnc(C4CCC(N(C)CC(=O)N(C)C)CC4)c(F)c3c2C(C)C)cn2ncnc12 (centres unmarked) [Example 79]	3 nM	3.6 nM	842 nM	–	–
CCN(C)C1CCC(c2ncc3[nH]c(-c4cc(OC)c5ncnn5c4)c(C(C)C)c3c2C)CC1 (centres unmarked) [Example 268]	4.8 nM	17 nM	757 nM	–	–
Cc1cc(-c2[nH]c3cnc(C4CCN(C(=O)CN(C)C)CC4)c(F)c3c2C(C)C)cc(C)n1 [Example 185]	6.2 nM	7.8 nM	1550 nM	–	–
COc1cc(-c2[nH]c3cnc(N4CCC(NC5(C)COC5)CC4)c(F)c3c2C(C)C)cn2ncnc12 [Example 188]	1.6 nM	0.21 nM	5160 nM	–	–
CNC(=O)CN1CCN(c2ncc3[nH]c(-c4cn5ncnc5c(C)c4C)c(C(C)C)c3c2F)[C@H](C)C1 [Example 465]	8.5 nM	–	–	3.1 nM	47900 nM
Cc1c(N2CCC(N3CCNC(=O)C3)CC2)ncc2[nH]c(-c3cc(C)c4ncnn4c3)c(C(C)C)c12 [Example 284]	8.3 nM	14 nM	23500 nM	–	–
COc1cc(-c2[nH]c3cnc(N4CCC(NC56CC(C5)C6)CC4)c(C)c3c2C(C)C)cn2ncnc12 [Example 56]	1.8 nM	1.5 nM	1010 nM	–	–
COc1cc(-c2[nH]c3cnc(N4CCC(N5CCC5)CC4)c(C)c3c2C(C)C)cn2ncnc12 [Example 87]	0.33 nM	1 nM	701 nM	–	–
COc1cc(-c2[nH]c3cnc(N4CCN(CC#N)CC4)c(F)c3c2C(C)C)cn2ncnc12 [Example 365]	0.42 nM	0.51 nM	1490 nM	–	–
COc1cc(-c2[nH]c3cnc(N4CCC(NC5CCOCC5)CC4)cc3c2C(C)C)cn2ncnc12 [Example 321]	2.8 nM	0.64 nM	1010 nM	–	–
Cc1c(-c2[nH]c3cnc(C4CCC(NCC5(C)COC5)CC4)c(F)c3c2C(C)C)cn2ncnc2c1C (centres unmarked) [Example 172]	4.4 nM	0.75 nM	2650 nM	–	–
COc1cc(-c2[nH]c3cnc(N4CCN(CC5(C)COC5)CC4)c(F)c3c2C(C)C)cn2ncnc12 [Example 385]	4.1 nM	1.4 nM	42100 nM	–	–
COc1cc(-c2[nH]c3cnc(N4CC5(CN(CC(C)C)C5)C4)c(F)c3c2C(C)C)cn2ncnc12 [Example 372]	7.9 nM	440 nM	5440 nM	–	–
